The record followed here is US11492385B2, “Long-acting co-agonists of the glucagon and GLP-1 receptors” (Merck Sharp & Dohme Corp., priority 2015, dated 2022).

Each structure is given as a SMILES string. Starred links: 1 amine or outer side, 2 acyl side, 3 side chain; linkers in the order of their positions; H or OH if unused. Non-standard residues stand in square brackets, D forms with d. Residues, ends and D or L forms follow the SMILES beside them. Groups on a side chain read outwards from the residue. *: point of attachment. Phe(4-CH2NH2) = NCc1ccc(C[C@H](N)C(=O)O)cc1; C19 diacid = O=C(O)CCCCCCCCCCCCCCCCCC(=O)*; C18 diacid = O=C(O)CCCCCCCCCCCCCCCCC(=O)*; C16 diacid = O=C(O)CCCCCCCCCCCCCCC(=O)*; γGlu = O=C(O)[C@H](CCC(=O)[*:2])N[*:1]; Met(O2) = CS(=O)(=O)CC[C@H](N)C(=O)O; AEEA = NCCOCCOCC(=O)O; Aib = CC(C)(N)C(=O)O

One may read the EC50 as the concentration at which the effect is half-maximal.

The target in experiment [1] is T1, human GLP1R (Homo sapiens, UniProt P43220).
T1 construct: expressed in transfected cells; kept under Blasticidin and Hygromycin selection
Kind of experiment: cAMP activity assay, cells expressing human GLP1R. The class given is cell-based. Particulars: cAMP production, assay buffer with or without 20% human serum (not stated which). A digest of the protocol: (§1)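 Peptides as 10-point titrations from DMSO tested on cells expressing human GLP1R or GCGR. cAMP measured by luminescent kit after overnight room-temperature incubation in the dark. EC50 from four-parameter logistic fit; native GLP-1 and glucagon as controls.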
A general note: Changes in cAMP serve as a functional read-out for many G protein-coupled receptors.

The target in experiment [2] is T2, human GCGR (Homo sapiens, UniProt P47871).
T2 construct: expressed in transfected cells; kept under Blasticidin and Hygromycin selection
Kind of experiment: cAMP activity assay, cells expressing human GCGR. The conditions noted are these: for EC50: cAMP production, cells expressing human GCGR, assay buffer with or without 20% human serum (not stated which), read-out: GCGR EC50 human; for hGCGR/hGLP1R (hTone): ratio of human GCGR EC50 to human GLP1R EC50. Format: cell-based. In a few lines: as §1

T2 sequence (P47871 26-477): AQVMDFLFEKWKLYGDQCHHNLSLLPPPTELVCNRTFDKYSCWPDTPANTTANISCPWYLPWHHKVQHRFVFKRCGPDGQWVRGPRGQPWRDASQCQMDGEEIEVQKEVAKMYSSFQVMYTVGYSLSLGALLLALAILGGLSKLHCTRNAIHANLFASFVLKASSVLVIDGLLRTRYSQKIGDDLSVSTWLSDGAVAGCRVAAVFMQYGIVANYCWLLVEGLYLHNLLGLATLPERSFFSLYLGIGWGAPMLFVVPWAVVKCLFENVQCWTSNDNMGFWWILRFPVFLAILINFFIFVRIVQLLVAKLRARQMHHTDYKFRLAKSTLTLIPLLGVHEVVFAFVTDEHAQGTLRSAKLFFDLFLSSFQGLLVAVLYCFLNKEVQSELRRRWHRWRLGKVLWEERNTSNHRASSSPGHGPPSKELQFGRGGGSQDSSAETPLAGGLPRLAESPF
T1 sequence (P43220 24-463): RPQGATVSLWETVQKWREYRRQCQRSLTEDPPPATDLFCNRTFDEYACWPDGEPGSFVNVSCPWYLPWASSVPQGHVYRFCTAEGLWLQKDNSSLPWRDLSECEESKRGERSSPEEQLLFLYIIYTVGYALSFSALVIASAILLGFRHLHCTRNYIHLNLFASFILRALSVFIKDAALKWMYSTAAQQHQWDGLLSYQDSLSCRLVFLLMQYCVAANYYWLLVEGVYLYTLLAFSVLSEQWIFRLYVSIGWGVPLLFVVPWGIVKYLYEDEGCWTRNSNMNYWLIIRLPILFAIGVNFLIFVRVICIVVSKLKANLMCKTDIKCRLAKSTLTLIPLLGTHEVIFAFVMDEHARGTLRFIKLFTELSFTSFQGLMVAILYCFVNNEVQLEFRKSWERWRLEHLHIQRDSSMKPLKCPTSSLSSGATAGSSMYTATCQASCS

As for `CC(C)C[C@H](NC(=O)[C@H](Cc1ccc(O)cc1)NC(=O)[C@H](CCCCN)NC(=O)[C@H](CO)NC(=O)[C@H](Cc1ccc(CNC(=O)COCCOCCNC(=O)COCCOCCNC(=O)CC[C@H](NC(=O)CCCCCCCCCCCCCCC(=O)O)C(=O)O)cc1)NC(=O)[C@H](CC(=O)O)NC(=O)[C@H](CO)NC(=O)[C@@H](NC(=O)[C@H](Cc1ccccc1)NC(=O)[C@@H](NC(=O)CNC(=O)[C@H](CCC(N)=O)NC(=O)C(C)(C)NC(=O)[C@@H](N)Cc1c[nH]cn1)[C@@H](C)O)[C@@H](C)O)C(=O)N[C@@H](CC(=O)O)C(=O)N[C@@H](C)C(=O)N[C@@H](CCCNC(=N)N)C(=O)N[C@@H](C)C(=O)N[C@@H](C)C(=O)N[C@@H](CCC(N)=O)C(=O)N[C@@H](CC(=O)O)C(=O)N[C@@H](Cc1ccccc1)C(=O)N[C@H](C(=O)N[C@@H](CCC(N)=O)C(=O)N[C@@H](Cc1c[nH]c2ccccc12)C(=O)N[C@@H](CC(C)C)C(=O)N[C@@H](CCS(C)(=O)=O)C(=O)N[C@@H](CC(=O)O)C(=O)N[C@H](C(N)=O)[C@@H](C)O)C(C)C` [compound 12] (H-H[Aib]QGTFTSD[Phe(4-CH2NH2)]([AEEA-AEEA-γGlu-C16 diacid])SKYLDARAAQDFVQWL[Met(O2)]DT-NH2; N-terminus assumed), the midpoint of the response in experiment [1], the EC50, lay at 0.07 nM. In addition, in experiment [2], the EC50 stood at 0.14 nM and the “hGCGR/hGLP1R (hTone)” value worked out at 1.89.

The molecule `CC(C)C[C@H](NC(=O)[C@H](Cc1ccc(O)cc1)NC(=O)[C@H](CCCCN)NC(=O)[C@H](CO)NC(=O)[C@H](Cc1ccc(O)cc1)NC(=O)[C@H](CC(=O)O)NC(=O)[C@H](CO)NC(=O)[C@@H](NC(=O)[C@H](Cc1ccccc1)NC(=O)[C@@H](NC(=O)CNC(=O)[C@H](CCC(N)=O)NC(=O)[C@@H](CO)NC(=O)[C@@H](N)Cc1c[nH]cn1)[C@@H](C)O)[C@@H](C)O)C(=O)N[C@@H](CC(=O)O)C(=O)N[C@@H](C)C(=O)N[C@@H](CCCNC(=N)N)C(=O)N[C@@H](C)C(=O)N[C@@H](C)C(=O)N[C@@H](CCC(N)=O)C(=O)N[C@@H](CCCCNC(=O)COCCOCCNC(=O)COCCOCCNC(=O)CC[C@H](NC(=O)CCCCCCCCCCCCCCC(=O)O)C(=O)O)C(=O)N[C@@H](Cc1ccccc1)C(=O)N[C@H](C(=O)N[C@@H](CCC(N)=O)C(=O)N[C@@H](Cc1c[nH]c2ccccc12)C(=O)N[C@@H](CC(C)C)C(=O)N[C@@H](CCS(C)(=O)=O)C(=O)N[C@@H](CC(=O)O)C(=O)N[C@H](C(N)=O)[C@@H](C)O)C(C)C` [compound 15] (H-H[dS]QGTFTSDYSKYLDARAAQK([AEEA-AEEA-γGlu-C16 diacid])FVQWL[Met(O2)]DT-NH2) yielded an EC50 in experiment [1] of 0.22 nM. In experiment [2], the 50% effective concentration (EC50) was 0.01 nM and the “hGCGR/hGLP1R (hTone)” value turned out to be 0.07.

With `CC(C)C[C@H](NC(=O)[C@H](CC(C)C)NC(=O)[C@H](CCCCN)NC(=O)[C@H](CO)NC(=O)[C@H](Cc1ccc(O)cc1)NC(=O)[C@H](CC(=O)O)NC(=O)[C@H](CO)NC(=O)[C@@H](NC(=O)[C@H](Cc1ccccc1)NC(=O)[C@@H](NC(=O)CNC(=O)[C@H](CCC(N)=O)NC(=O)C(C)(C)NC(=O)[C@@H](N)Cc1c[nH]cn1)[C@@H](C)O)[C@@H](C)O)C(=O)N[C@@H](CC(=O)O)C(=O)N[C@@H](C)C(=O)N[C@@H](CCCNC(=N)N)C(=O)N[C@@H](C)C(=O)N[C@@H](C)C(=O)N[C@@H](CCCCNC(=O)COCCOCCNC(=O)COCCOCCNC(=O)CC[C@H](NC(=O)CCCCCCCCCCCCCCCCC(=O)O)C(=O)O)C(=O)N[C@@H](CC(=O)O)C(=O)N[C@@H](Cc1ccccc1)C(=O)N[C@H](C(=O)N[C@@H](CCC(N)=O)C(=O)N[C@@H](Cc1c[nH]c2ccccc12)C(=O)N[C@@H](CC(C)C)C(=O)N[C@@H](CCS(C)(=O)=O)C(=O)N[C@@H](CC(=O)O)C(=O)N[C@H](C(N)=O)[C@@H](C)O)C(C)C` [compound 76] (H-H[Aib]QGTFTSDYSKLLDARAAK([AEEA-AEEA-γGlu-C18 diacid])DFVQWL[Met(O2)]DT-NH2; N-terminus assumed), the half-maximal effective concentration (EC50) in experiment [1] came out at 0.61 nM; in experiment [2], 0.74 nM. Further, in experiment [2], the “hGCGR/hGLP1R (hTone)” value amounted to 1.2.

Take `CC(C)C[C@H](NC(=O)[C@H](Cc1ccc(O)cc1)NC(=O)[C@H](CCCCN)NC(=O)[C@H](CO)NC(=O)[C@H](Cc1ccc(O)cc1)NC(=O)[C@H](CC(=O)O)NC(=O)[C@H](CO)NC(=O)[C@@H](NC(=O)[C@H](Cc1ccccc1)NC(=O)[C@@H](NC(=O)CNC(=O)[C@H](CCC(N)=O)NC(=O)C(C)(C)NC(=O)[C@@H](N)Cc1c[nH]cn1)[C@@H](C)O)[C@@H](C)O)C(=O)N[C@@H](CC(=O)O)C(=O)N[C@@H](CCC(=O)O)C(=O)N[C@@H](CCCNC(=N)N)C(=O)N[C@@H](C)C(=O)N[C@@H](C)C(=O)N[C@@H](Cc1ccc(CNC(=O)COCCOCCNC(=O)COCCOCCNC(=O)CC[C@H](NC(=O)CCCCCCCCCCCCCCC(=O)O)C(=O)O)cc1)C(=O)N[C@@H](CC(=O)O)C(=O)N[C@@H](Cc1ccccc1)C(=O)N[C@H](C(=O)N[C@@H](CCC(N)=O)C(=O)N[C@@H](Cc1c[nH]c2ccccc12)C(=O)N[C@@H](CC(C)C)C(=O)N[C@@H](CC(C)C)C(=O)N[C@@H](CCCCN)C(=O)N[C@H](C(N)=O)[C@@H](C)O)C(C)C` [compound 26] (H-H[Aib]QGTFTSDYSKYLDERAA[Phe(4-CH2NH2)]([AEEA-AEEA-γGlu-C16 diacid])DFVQWLLKT-NH2): in experiment [1], the EC50 was 0.11 nM. Further, in experiment [2], the EC50 amounted to 0.52 nM and the “hGCGR/hGLP1R (hTone)” value was found to be 4.68.

Turning to `CC(C)C[C@H](NC(=O)[C@H](Cc1ccc(O)cc1)NC(=O)[C@H](CCCCN)NC(=O)[C@H](CO)NC(=O)[C@H](Cc1ccc(O)cc1)NC(=O)[C@H](CC(=O)O)NC(=O)[C@H](CO)NC(=O)[C@@H](NC(=O)[C@H](Cc1ccccc1)NC(=O)[C@@H](NC(=O)CNC(=O)[C@H](CCC(N)=O)NC(=O)[C@@H](CO)NC(=O)[C@@H](N)Cc1c[nH]cn1)[C@@H](C)O)[C@@H](C)O)C(=O)N[C@@H](CC(=O)O)C(=O)N[C@@H](C)C(=O)N[C@@H](CCCNC(=N)N)C(=O)N[C@@H](C)C(=O)N[C@@H](C)C(=O)N[C@@H](CCCCNC(=O)COCCOCCNC(=O)COCCOCCNC(=O)CC[C@H](NC(=O)CCCCCCCCCCCCCCC(=O)O)C(=O)O)C(=O)N[C@@H](CC(=O)O)C(=O)N[C@@H](Cc1ccccc1)C(=O)N[C@H](C(=O)N[C@@H](CCC(N)=O)C(=O)N[C@@H](Cc1c[nH]c2ccccc12)C(=O)N[C@@H](CC(C)C)C(=O)N[C@@H](CC(C)C)C(=O)N[C@@H](CC(=O)O)C(=O)N[C@H](C(N)=O)[C@@H](C)O)C(C)C` [compound 2] (H-H[dS]QGTFTSDYSKYLDARAAK([AEEA-AEEA-γGlu-C16 diacid])DFVQWLLDT-NH2; N-terminus assumed), the values for the EC50 in experiment [1] and in experiment [2] were 0.274 nM and 0.03 nM, respectively. The “hGCGR/hGLP1R (hTone)” value in experiment [2] came to 0.11.

In turn, `CC(C)C[C@H](NC(=O)[C@H](Cc1ccc(O)cc1)NC(=O)[C@H](CCCCN)NC(=O)[C@H](CO)NC(=O)[C@H](Cc1ccc(O)cc1)NC(=O)[C@H](CC(=O)O)NC(=O)[C@H](CO)NC(=O)[C@@H](NC(=O)[C@H](Cc1ccccc1)NC(=O)[C@@H](NC(=O)CNC(=O)[C@H](CCC(N)=O)NC(=O)[C@@H](CO)NC(=O)[C@@H](N)Cc1c[nH]cn1)[C@@H](C)O)[C@@H](C)O)C(=O)N[C@@H](CC(=O)O)C(=O)N[C@@H](C)C(=O)N[C@@H](CCCNC(=N)N)C(=O)N[C@@H](C)C(=O)N[C@@H](C)C(=O)N[C@@H](CCC(N)=O)C(=O)N[C@@H](CCCCNC(=O)COCCOCCNC(=O)COCCOCCNC(=O)CC[C@H](NC(=O)CCCCCCCCCCCCCCC(=O)O)C(=O)O)C(=O)N[C@@H](Cc1ccccc1)C(=O)N[C@H](C(=O)N[C@@H](CCC(N)=O)C(=O)N[C@@H](Cc1c[nH]c2ccccc12)C(=O)N[C@@H](CC(C)C)C(=O)N[C@@H](CC(C)C)C(=O)N[C@@H](CC(=O)O)C(=O)N[C@H](C(N)=O)[C@@H](C)O)C(C)C` [compound 3] (H-H[dS]QGTFTSDYSKYLDARAAQK([AEEA-AEEA-γGlu-C16 diacid])FVQWLLDT-NH2) returned an EC50 in experiment [1] of 0.2 nM. Also, in experiment [2], the half-maximal effective concentration (EC50) stood at 0.05 nM and the “hGCGR/hGLP1R (hTone)” value is listed as 0.23.

The molecule `CC(C)C[C@H](NC(=O)[C@H](Cc1ccc(O)cc1)NC(=O)[C@H](CCCCN)NC(=O)[C@H](CO)NC(=O)[C@H](Cc1ccc(O)cc1)NC(=O)[C@H](CC(=O)O)NC(=O)[C@H](CO)NC(=O)[C@@H](NC(=O)[C@H](Cc1ccccc1)NC(=O)[C@@H](NC(=O)CNC(=O)[C@H](CCC(N)=O)NC(=O)C(C)(C)NC(=O)[C@@H](N)Cc1c[nH]cn1)[C@@H](C)O)[C@@H](C)O)C(=O)N[C@@H](CC(=O)O)C(=O)N[C@@H](C)C(=O)N[C@@H](CCCNC(=N)N)C(=O)N[C@@H](C)C(=O)N[C@@H](C)C(=O)N[C@@H](CCC(N)=O)C(=O)N[C@@H](CCCCNC(=O)COCCOCCNC(=O)COCCOCCNC(=O)CC[C@H](NC(=O)CCCCCCCCCCCCCCCCCC(=O)O)C(=O)O)C(=O)N[C@@H](Cc1ccccc1)C(=O)N[C@H](C(=O)N[C@@H](CCC(N)=O)C(=O)N[C@@H](Cc1c[nH]c2ccccc12)C(=O)N[C@@H](CC(C)C)C(=O)N[C@@H](CCS(C)(=O)=O)C(=O)N[C@@H](CC(=O)O)C(=O)N[C@H](C(N)=O)[C@@H](C)O)C(C)C` [compound 46] (H-H[Aib]QGTFTSDYSKYLDARAAQK([AEEA-AEEA-γGlu-C19 diacid])FVQWL[Met(O2)]DT-NH2; N-terminus assumed) yielded an EC50 in experiment [1] of 0.28 nM. For the same molecule, in experiment [2], the EC50 was 0.5 nM and the “hGCGR/hGLP1R (hTone)” value was 1.83.
